Experimental data from US10358435B2, “Triazolyl pyrimidinone compounds as PDE2 inhibitors” (Merck Sharp & Dohme Corp., priority 2015, dated 2019).

What follows are compounds tested against human PDE2A1 (Homo sapiens (Human), UniProt O00408) (assay: IMAP fluorescence polarization assay, human PDE2A1 (PDE selectivity panel)). Conditions: not given.
Sequence of human PDE2A1 (O00408 other isoform, or with tags, fused parts or gaps): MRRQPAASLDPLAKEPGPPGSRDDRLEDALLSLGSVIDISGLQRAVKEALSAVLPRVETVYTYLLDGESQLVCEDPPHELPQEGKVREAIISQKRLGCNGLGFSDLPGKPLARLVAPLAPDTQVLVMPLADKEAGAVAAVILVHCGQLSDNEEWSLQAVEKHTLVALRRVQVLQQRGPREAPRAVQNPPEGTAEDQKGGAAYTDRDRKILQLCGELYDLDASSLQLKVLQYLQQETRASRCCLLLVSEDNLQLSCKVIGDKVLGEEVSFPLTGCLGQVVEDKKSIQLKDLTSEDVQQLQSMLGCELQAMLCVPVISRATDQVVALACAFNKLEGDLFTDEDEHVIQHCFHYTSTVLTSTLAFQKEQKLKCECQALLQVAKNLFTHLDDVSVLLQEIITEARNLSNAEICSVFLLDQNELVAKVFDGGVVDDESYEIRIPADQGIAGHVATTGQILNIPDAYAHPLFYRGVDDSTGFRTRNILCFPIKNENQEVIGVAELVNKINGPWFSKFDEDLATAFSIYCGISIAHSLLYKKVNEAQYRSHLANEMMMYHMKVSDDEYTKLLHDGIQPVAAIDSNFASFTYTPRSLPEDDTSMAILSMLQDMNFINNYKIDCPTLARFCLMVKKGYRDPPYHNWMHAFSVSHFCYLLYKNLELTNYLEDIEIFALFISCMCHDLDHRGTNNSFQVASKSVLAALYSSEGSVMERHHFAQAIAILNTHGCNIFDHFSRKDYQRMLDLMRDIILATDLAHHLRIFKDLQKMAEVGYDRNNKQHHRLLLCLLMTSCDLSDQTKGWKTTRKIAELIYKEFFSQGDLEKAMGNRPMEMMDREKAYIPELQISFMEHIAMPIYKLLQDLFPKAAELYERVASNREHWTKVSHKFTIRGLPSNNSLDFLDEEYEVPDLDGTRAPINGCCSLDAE
Format: biochemical
Experimental: The activity of the compounds in accordance with the present invention as PDE2 inhibitors may be readily determined using a fluorescence polarization (FP) methodology (Huang, W., et al., J. Biomol Screen, 2002, 7: 215).
Dose-inhibition profiles for each compound were characterized by fitting the mP data to a four-parameter equation given below.
Selectivity for PDE2, as compared to other PDE families, was assessed using the IMAP® technology. Human PDE10A2 enzyme was prepared from cytosolic fractions of transiently transfected HEK cells. All other PDE's were GST Tag human enzyme expressed in insect cells and were obtained from BPS Bioscience (San Diego, Calif.): PDE1A (Cat#60010), human PDE2A1 (Cat#60020), PDE3A (Cat#60030), PDE4A1A (Cat#60040), PDE5A1 (Cat#60050), PDE6C (Cat#60060), PDE7A (Cat#60070), PDE8A1 (Cat#60080), PDE9A2 (Cat#60090), PDE11A4 (Cat#60110).
Assays for PDE 1 through 11 were performed in parallel at room temperature in 384-well microtiter plates with an incubation volume of 20.2 μL. Solutions of test compounds were prepared in DMSO and serially diluted with DMSO to yield 30 μL of each of ten solutions differing by 3-fold in concentration, at 32 serial dilutions per plate. […] A Labcyte POD 810 (Labcyte, Sunnyvale, Calif.) was used to dispense 200 nL from each well of the titration plate to make eleven copies of the assay plate for each titration, one copy for each PDE enzyme. A solution of each enzyme (dilution from aliquots, sufficient to produce 20% substrate conversion) and a separate solution of FAM-labeled cAMP or FAM-labeled cGMP from Molecular Devices (Sunnyvale, Calif., product # R7506 or cGMP#R7508), at a final concentration of 50 nM were made in the assay buffer (10 mM Tris HCl, pH 7.2, 10 mM MgCl2, 0.05% NaN3 0.01% Tween-20, and 1 mM DTT). Note that the substrate for PDE2 is 50 nM FAM cAMP containing 1000 nM of cGMP. The enzyme and the substrate were then added to the assay plates in two consecutive additions of 10 μL and then shaken to mix. The reaction was allowed to proceed at room temperature for 60 minutes. A binding solution was then made from the kit components, comprised of 80% Solution A, 20% Solution B and binding reagent at a volume of 1/600 the total binding solution. The enzymatic reaction was stopped by addition of 60 μL of the binding solution to each well of the assay plate. The plates were sealed and shaken for 10 seconds. The plates were incubated at room temperature for one hour, then the parallel and perpendicular fluorescence was measured using a Tecan Genios Pro plate reader (Tecan, Switzerland). The apparent inhibition constants for the compounds against all 11 PDE's was determined from the parallel and perpendicular fluorescent readings as described for PDE10 FP assay using the following apparent KM values for each enzyme and substrate combination: PDE1A (FAM cGMP) 70 nM, human PDE2A1 (FAM cAMP) 10,000 nM, PDE3A (FAM cAMP) 50 nM, PDE4A1A (FAM cAMP) 1500 nM, PDE5A1 (FAM cGMP) 400 nM, PDE6C (FAM cGMP) 700 nM, PDE7A (FAM cAMP) 150 nM, PDE8A1 (FAM cAMP) 50 nM, PDE9A2 (FAM cGMP) 60 nM, PDE10A2 (FAM cAMP) 150 nM, PDE11A4 (FAM cAMP) 1000 nM. The intrinsic PDE2 inhibitory activity of a compound which may be used in accordance with the present invention may be determined by these assays.
In the case of Cc1nc(-c2nnn3c2CCCC3c2ccc(C(F)(F)F)cc2F)cc(=O)[nH]1 (single isomer, unassigned) [Example 49, (R)- or (S)-6-(7-(2-fluoro-4-(trifluoromethyl)phenyl)-4,5,6,7-tetrahydro-[1,2,3]triazolo[1,5-a]pyridin-3-yl)-2-methylpyrimidin-4(3H)-one], the inhibition at 3 µM is reported as 33%.
Cc1nc(-c2nnc(C(C)c3ccc(C(F)(F)F)cc3F)n2C)cc(=O)[nH]1 (single isomer, unassigned) [Example 63, (R)- or (S)-6-(5-(1-(2-fluoro-4-(trifluoromethyl)-phenyl)ethyl)-4-methyl-4H-1,2,4-triazol-3-yl)-2-methylpyrimidin-4(3H)-one] was tested, and the inhibition at 3 µM was 16%.
For Cc1nc(-c2nnc(C(C)c3ccc(C(F)(F)F)cc3Cl)n2C)cc(=O)[nH]1 (single isomer, unassigned) [Example 67, (R)- or (S)-6-(5-(1-(2-chloro-4-(trifluoromethyl)-phenyl)ethyl)-4-methyl-4H-1,2,4-triazol-3-yl)-2-methylpyrimidin-4(3H)-one], the inhibition at 3 µM was 17%.

Same assay, conditions: FAM cAMP 50 nM with 1000 nM cGMP
Compound Cc1nc(-c2cn(C(c3ccc(C(F)(F)F)cc3F)C3CC3)nn2)cc(=O)[nH]1 (single isomer, unassigned) [Example 41] has a Ki of 38 nM.
With Cc1nc(-c2cn(C(c3ccc(C(F)(F)F)cc3F)C3CC3)nn2)cc(=O)[nH]1 (single isomer, unassigned) [Example 42] the Ki was 9.7 nM.
Work on Cc1nc(-c2nnn([C@H](C)c3ccc(C(F)(F)F)cc3Cl)c2C)cc(=O)[nH]1 (single isomer, unassigned) [Example 43] yielded a Ki of 4.6 nM.
With CCCCc1c(-c2cc(=O)[nH]c(C)n2)nnn1C(C)c1ccc(C(F)(F)F)cc1Cl (single isomer, unassigned) [Example 45, (R)- or (S)-6-(5-butyl-1-(1-(2-chloro-4-(trifluoromethyl)phenyl)ethyl)-1H-1,2,3-triazol-4-yl)-2-methylpyrimidin-4(3H)-one] the Ki was 9.2 nM.
CCCCc1c(-c2cc(=O)[nH]c(C)n2)nnn1C(C)c1ccc(C(F)(F)F)cc1Cl (single isomer, unassigned) [Example 46, (S)- or (R)-6-(5-butyl-1-(1-(2-chloro-4-(trifluoromethyl)phenyl)ethyl)-1H-1,2,3-triazol-4-yl)-2-methylpyrimidin-4(3H)-one] showed a Ki of 1100 nM.
Cc1nc(-c2nnn3c2CCC[C@H]3c2ccc(C(F)(F)F)cc2)cc(=O)[nH]1 (single isomer, unassigned) [Example 48] showed a Ki of 42.4 nM.
With Cc1nc(-c2nnn3c2CCCC3c2ccc(C(F)(F)F)cc2F)cc(=O)[nH]1 (single isomer, unassigned) [Example 50, (S)- or (R)-6-(7-(2-fluoro-4-(trifluoromethyl)phenyl)-4,5,6,7-tetrahydro-[1,2,3]triazolo[1,5-a]pyridin-3-yl)-2-methylpyrimidin-4(3H)-one] the Ki was 20.7 nM.
For Cc1nc(-c2nnn3c2CCCCC3c2ccc(C(F)(F)F)cc2)cc(=O)[nH]1 (single isomer, unassigned) [Example 51, (R)- or (S)-2-methyl-6-(8-(4-(trifluoromethyl)phenyl)-5,6,7,8-tetrahydro-4H-[1,2,3]triazolo[1,5-a]azepin-3-yl)pyrimidin-4(3H)-one], the Ki was 79.9 nM.
Cc1nc(-c2nnn3c2CCCCC3c2ccc(C(F)(F)F)cc2)cc(=O)[nH]1 (single isomer, unassigned) [Example 52, (S)- or (R)-2-methyl-6-(8-(4-(trifluoromethyl)phenyl)-5,6,7,8-tetrahydro-4H-[1,2,3]triazolo[1,5-a]azepin-3-yl)pyrimidin-4(3H)-one] was tested, and the Ki was 139 nM.
Cc1nc(-c2nnn3c2CCC[C@@]3(C)c2ccc(C(F)(F)F)cc2)cc(=O)[nH]1 (single isomer, unassigned) [Example 54] was tested, and the Ki was 16.2 nM.
In the case of Cc1nc(-c2nnn3c2CCC[C@@]3(C)c2ccc(C(F)(F)F)cc2)cc(=O)[nH]1 (single isomer, unassigned) [Example 55], the Ki is reported as 232 nM.
CCC1(c2ccc(C(F)(F)F)cc2)CCCc2c(-c3cc(=O)[nH]c(C)n3)nnn21 (single isomer, unassigned) [Example 56, (R)- or (S)-6-(7-ethyl-7-(4-(trifluoromethyl)phenyl)-4,5,6,7-tetrahydro-[1,2,3]triazolo[1,5-a]pyridin-3-yl)-2-methylpyrimidin-4(3H)-one] gave a Ki of 616 nM.
Work on CCC1(c2ccc(C(F)(F)F)cc2)CCCc2c(-c3cc(=O)[nH]c(C)n3)nnn21 (single isomer, unassigned) [Example 57, (S)- or (R)-6-(7-ethyl-7-(4-(trifluoromethyl)phenyl)-4,5,6,7-tetrahydro-[1,2,3]triazolo[1,5-a]pyridin-3-yl)-2-methylpyrimidin-4(3H)-one] yielded a Ki of 29 nM.
With Cc1nc(-c2nnn3c2CCCC3(C)c2ccc(C(F)(F)F)cc2F)cc(=O)[nH]1 (single isomer, unassigned) [Example 58, (R)- or (S)-6-(7-(2-fluoro-4-(trifluoromethyl)phenyl)-7-methyl-4,5,6,7-tetrahydro-[1,2,3]triazolo[1,5-a]pyridin-3-yl)-2-methylpyrimidin-4(3H)-one] the Ki was 1.3 nM.
Cc1nc(-c2nnn3c2CCCC3(C)c2ccc(C(F)(F)F)cc2F)cc(=O)[nH]1 (single isomer, unassigned) [Example 59, (S)- or (R)-6-(7-(2-fluoro-4-(trifluoromethyl)phenyl)-7-methyl-4,5,6,7-tetrahydro-[1,2,3]triazolo[1,5-a]pyridin-3-yl)-2-methylpyrimidin-4(3H)-one] showed a Ki of 178 nM.
Compound Cc1nc(-c2nnc(C(C)c3ccc(C(F)(F)F)cc3F)[nH]2)cc(=O)[nH]1 (single isomer, unassigned) [Example 61, (R)- or (S)-6-(5-(1-(2-fluoro-4-(trifluoromethyl)-phenyl)ethyl)-4H-1,2,4-triazol-3-yl)-2-methylpyrimidin-4(3H)-one] has a Ki of 52.7 nM.
In the case of Cc1nc(-c2nnc(C(C)c3ccc(C(F)(F)F)cc3F)[nH]2)cc(=O)[nH]1 (single isomer, unassigned) [Example 62, (S)- or (R)-6-(5-(1-(2-fluoro-4-(trifluoromethyl)-phenyl)ethyl)-4H-1,2,4-triazol-3-yl)-2-methylpyrimidin-4(3H)-one], the Ki is reported as 387 nM.
Cc1nc(-c2nnc(C(C)c3ccc(C(F)(F)F)cc3F)n2C)cc(=O)[nH]1 (single isomer, unassigned) [Example 64, (S)- or (R)-6-(5-(1-(2-fluoro-4-(trifluoromethyl)-phenyl)ethyl)-4-methyl-4H-1,2,4-triazol-3-yl)-2-methylpyrimidin-4(3H)-one] was tested, and the Ki was 23.3 nM.
With Cc1nc(-c2nnc(C(C)c3ccc(C(F)(F)F)cc3Cl)[nH]2)cc(=O)[nH]1 (single isomer, unassigned) [Example 65, (R)- or (S)-6-(5-(1-(2-chloro-4-(trifluoromethyl)-phenyl)ethyl)-4H-1,2,4-triazol-3-yl)-2-methylpyrimidin-4(3H)-one] the Ki was 15.9 nM.
Cc1nc(-c2nnc(C(C)c3ccc(C(F)(F)F)cc3Cl)[nH]2)cc(=O)[nH]1 (single isomer, unassigned) [Example 66, (S)- or (R)-6-(5-(1-(2-chloro-4-(trifluoromethyl)-phenyl)ethyl)-4H-1,2,4-triazol-3-yl)-2-methylpyrimidin-4(3H)-one] was tested, and the Ki was 525 nM.
For Cc1nc(-c2nnc(C(C)c3ccc(C(F)(F)F)cc3Cl)n2C)cc(=O)[nH]1 (single isomer, unassigned) [Example 68, (S)- or (R)-6-(5-(1-(2-chloro-4-(trifluoromethyl)-phenyl)ethyl)-4-methyl-4H-1,2,4-triazol-3-yl)-2-methylpyrimidin-4(3H)-one], the Ki was 7.7 nM.
For Cc1nc(-c2nnc3n2CCC[C@H]3c2ccc(C(F)(F)F)cc2)cc(=O)[nH]1 (single isomer, unassigned) [Example 70], the Ki was 54.3 nM.
